In ChEMBL document CHEMBL5143564, “PES derivative PESA is a potent tool to globally profile cellular targets of PES” (Bioorg Med Chem Lett, 2022):
Active and inactive are the calls of the source.

Assays:
[1] = organism: Homo sapiens; assay: Binding affinity to ADP-bound full-length human HSP70 by TAMRA-azide based fluorescence imaging analysis; conditions: dose 0.2-20 µM, DDE = dose-dependent effect
[2] = target: T1, Peroxiredoxin-2 (Homo sapiens) (UniProt P32119); assay: Binding affinity to PRDX2 in human MDA-MB-453 cells measured after 6 hrs by pull-down assay; type: cell-based; conditions: dose <= 20.0 µM, DDE = dose-dependent effect
T1 sequence (whole entry): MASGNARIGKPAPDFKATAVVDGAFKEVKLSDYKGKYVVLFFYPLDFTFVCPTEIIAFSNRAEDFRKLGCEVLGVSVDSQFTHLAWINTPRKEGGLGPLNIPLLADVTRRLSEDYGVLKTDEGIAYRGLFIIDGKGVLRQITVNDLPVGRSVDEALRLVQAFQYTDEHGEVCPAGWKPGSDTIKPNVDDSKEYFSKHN

[3] = target: Tubulin beta (Homo sapiens) (UniProt P68371+Q9H4B7+Q13509+P04350+Q3ZCM7+P07437+Q13885+Q9BVA1+Q9BUF5+A6NNZ2); assay: Binding affinity to beta-tubulin in human DOHH-2 cells measured after 6 hrs by pull-down assay; type: cell-based; conditions: DDE = dose-dependent effect
[4] = target: T2, Protein disulfide-isomerase A4 (Homo sapiens) (UniProt P13667); assay: Binding affinity to PDIA4 in human MDA-MB-453 cells measured after 6 hrs by pull-down assay; type: cell-based; conditions: dose <= 20.0 µM, DDE = dose-dependent effect
T2 sequence (whole entry): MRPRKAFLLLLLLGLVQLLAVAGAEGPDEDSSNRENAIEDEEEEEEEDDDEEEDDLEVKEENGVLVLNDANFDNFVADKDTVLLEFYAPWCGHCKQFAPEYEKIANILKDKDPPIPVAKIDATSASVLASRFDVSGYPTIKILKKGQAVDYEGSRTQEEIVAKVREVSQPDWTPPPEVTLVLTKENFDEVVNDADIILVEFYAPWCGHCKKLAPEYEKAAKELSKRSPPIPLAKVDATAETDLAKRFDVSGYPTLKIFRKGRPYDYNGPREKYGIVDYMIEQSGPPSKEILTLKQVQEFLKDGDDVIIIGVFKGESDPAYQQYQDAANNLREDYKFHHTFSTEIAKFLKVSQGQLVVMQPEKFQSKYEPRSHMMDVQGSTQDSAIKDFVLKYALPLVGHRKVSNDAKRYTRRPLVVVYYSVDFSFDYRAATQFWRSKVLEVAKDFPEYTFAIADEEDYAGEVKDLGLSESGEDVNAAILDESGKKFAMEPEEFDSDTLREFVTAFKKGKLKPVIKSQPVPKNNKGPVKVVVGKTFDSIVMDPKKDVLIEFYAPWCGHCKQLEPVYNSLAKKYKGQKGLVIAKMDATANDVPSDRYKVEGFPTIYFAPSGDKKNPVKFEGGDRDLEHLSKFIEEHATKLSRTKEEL

[5] = tested on: Jurkat; assay: Cytotoxicity against human Jurkat T cells up to 20 uM measured after 24 hrs; type: functional, cell-based
[6] = target: T3, Plastin-2 (Homo sapiens) (UniProt P13796); assay: Binding affinity to plastin-2 in human MDA-MB-453 cells measured after 6 hrs by pull-down assay; type: cell-based; conditions: dose <= 20.0 µM, DDE = dose-dependent effect
T3 sequence (whole entry): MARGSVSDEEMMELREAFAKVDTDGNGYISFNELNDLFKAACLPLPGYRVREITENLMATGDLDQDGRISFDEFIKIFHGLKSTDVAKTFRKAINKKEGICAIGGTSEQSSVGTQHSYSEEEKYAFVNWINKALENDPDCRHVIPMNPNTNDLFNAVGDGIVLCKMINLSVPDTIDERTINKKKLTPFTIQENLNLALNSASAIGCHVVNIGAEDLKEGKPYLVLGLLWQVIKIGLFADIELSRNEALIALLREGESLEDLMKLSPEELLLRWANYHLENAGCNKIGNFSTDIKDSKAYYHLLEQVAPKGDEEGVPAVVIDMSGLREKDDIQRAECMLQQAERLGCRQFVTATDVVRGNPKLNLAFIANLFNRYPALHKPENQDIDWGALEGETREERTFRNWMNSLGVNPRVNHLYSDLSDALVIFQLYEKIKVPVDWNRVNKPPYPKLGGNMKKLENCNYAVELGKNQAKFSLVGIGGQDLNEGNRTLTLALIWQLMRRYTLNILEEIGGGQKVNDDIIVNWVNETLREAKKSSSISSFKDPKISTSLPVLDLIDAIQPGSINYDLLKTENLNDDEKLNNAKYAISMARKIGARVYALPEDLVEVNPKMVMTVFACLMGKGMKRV

[7] = tested on: DOHH-2; assay: Induction of autophagy in human DOHH-2 cells assessed as change in transformation of LC3B1 to LC3B2 expression at 8 uM measured after 4 to 24 hrs by Western blot analysis; type: functional, cell-based; conditions: time 4-24 hrs
[8] = target: T4, D-3-phosphoglycerate dehydrogenase (Homo sapiens) (UniProt O43175); assay: Binding affinity to D-3-phosphoglycerate dehydrogenase in human MDA-MB-453 cells measured after 6 hrs by pull-down assay; type: cell-based; conditions: dose <= 20.0 µM, DDE = dose-dependent effect
T4 sequence (whole entry): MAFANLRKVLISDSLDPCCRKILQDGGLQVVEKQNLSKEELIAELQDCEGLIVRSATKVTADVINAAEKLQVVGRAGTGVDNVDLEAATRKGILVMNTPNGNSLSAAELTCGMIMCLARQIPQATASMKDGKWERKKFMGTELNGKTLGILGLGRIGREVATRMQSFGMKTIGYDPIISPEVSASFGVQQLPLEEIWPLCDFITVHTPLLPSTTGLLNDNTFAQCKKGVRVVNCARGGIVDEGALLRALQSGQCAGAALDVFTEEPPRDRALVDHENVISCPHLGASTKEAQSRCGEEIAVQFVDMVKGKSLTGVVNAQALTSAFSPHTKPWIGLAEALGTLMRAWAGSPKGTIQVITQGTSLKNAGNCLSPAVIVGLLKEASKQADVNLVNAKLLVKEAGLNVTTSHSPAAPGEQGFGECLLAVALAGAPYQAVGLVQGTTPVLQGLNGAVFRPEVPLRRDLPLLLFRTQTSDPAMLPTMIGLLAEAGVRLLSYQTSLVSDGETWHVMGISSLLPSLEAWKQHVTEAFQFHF

[9] = tested on: MDA-MB-453; assay: Cytotoxicity against human MDA-MB-453 cells measured after 72 hrs; type: functional, cell-based
[10] = target: T5, Peroxiredoxin-5, mitochondrial (Homo sapiens) (UniProt P30044); assay: Binding affinity to PRDX5 in human DOHH-2 cells by MS analysis; type: cell-based
T5 sequence (whole entry): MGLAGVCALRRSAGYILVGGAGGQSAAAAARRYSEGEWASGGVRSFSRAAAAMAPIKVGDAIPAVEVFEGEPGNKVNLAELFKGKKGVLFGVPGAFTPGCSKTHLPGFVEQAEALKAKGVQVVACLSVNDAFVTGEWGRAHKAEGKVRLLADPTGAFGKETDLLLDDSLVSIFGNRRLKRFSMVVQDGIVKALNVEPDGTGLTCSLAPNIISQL

[11] = target: Glutathione S-transferase P (Homo sapiens) (UniProt P09211); assay: Binding affinity to GSTP1 in human DOHH-2 cells by MS analysis; type: cell-based
Glutathione S-transferase P (Homo sapiens), sequence (P09211 2-210 limits assumed): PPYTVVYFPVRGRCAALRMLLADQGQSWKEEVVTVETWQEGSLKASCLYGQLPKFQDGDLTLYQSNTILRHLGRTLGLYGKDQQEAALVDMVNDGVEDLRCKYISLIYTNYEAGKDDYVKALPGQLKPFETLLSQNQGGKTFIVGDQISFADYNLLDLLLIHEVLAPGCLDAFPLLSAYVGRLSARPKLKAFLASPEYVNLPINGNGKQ

[12] = target: Glutathione S-transferase P (Homo sapiens) (UniProt P09211); assay: Binding affinity to GSTP1 in human DOHH-2 cells measured after 6 hrs by pull-down assay; type: cell-based; conditions: DDE = dose-dependent effect
[13] = target: Coronin-1A (Homo sapiens) (UniProt P31146); assay: Binding affinity to coronin-1A in human DOHH-2 cells by MS analysis; type: cell-based
Coronin-1A (Homo sapiens), sequence (P31146 whole entry): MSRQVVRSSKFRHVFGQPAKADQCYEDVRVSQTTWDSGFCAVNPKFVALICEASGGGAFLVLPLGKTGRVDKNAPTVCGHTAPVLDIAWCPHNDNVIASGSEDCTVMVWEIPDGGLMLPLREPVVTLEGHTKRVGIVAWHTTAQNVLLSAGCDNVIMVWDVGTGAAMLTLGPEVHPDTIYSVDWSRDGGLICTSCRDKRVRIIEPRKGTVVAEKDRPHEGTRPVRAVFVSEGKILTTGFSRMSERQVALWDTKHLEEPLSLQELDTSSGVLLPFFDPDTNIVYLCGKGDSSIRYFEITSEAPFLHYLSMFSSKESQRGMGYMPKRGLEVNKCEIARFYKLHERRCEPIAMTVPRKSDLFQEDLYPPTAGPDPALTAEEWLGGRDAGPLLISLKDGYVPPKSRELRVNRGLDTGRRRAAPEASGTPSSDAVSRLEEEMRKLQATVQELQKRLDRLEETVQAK

Measured: Activity

C#Cc1cccc(C#CS(N)(=O)=O)c1
active: [1] Dde | [2] Dde | [3] Dde | [4] Dde | [5] | [6] Dde | [7] | [8] Dde | [9] | [10] | [11] | [12] Dde | [13]
